The subject of assay [1] is ovariectomized C57BL/6 mice. The assay is described as follows: Ovariectomy-induced bone loss in mice, micro-CT of tibiae and L4 vertebrae. The following applies: 35 days. The format is in vivo, mouse. The text has this:
Eight-week-old ovariectomized (OVX) female C57BL6 and non-ovariectomized control mice were purchased from Janvier (Le Genest Saint Ilsle, France). Mice were housed under pathogen-free conditions at the Experimental Therapy Unit (Faculty of Medicine, University of Nantes, France), and animal care and experimental protocols were approved by the French Ministry of Research and were done in accordance with the institutional guidelines of the French Ethical Committee and under the supervision of authorized investigators. After recovery from OVX surgery for 7 days and acclimation, the mice were randomly divided into treatment groups receiving daily subcutaneous injections of a peptide and a control group receiving daily injections of the vehicle (PBS) only. Non-ovariectomized or sham-operated mice were included in the studies as healthy controls. Three experimental protocols were established. Protocol 1: Ovariectomized mice received daily s.c. injections of 10 mg/kg body weight Pep8 (Pep8, n=8) or vehicle only (OVX, n=8). Non-ovariectomized (NOV, n=8) mice served as normal controls. Protocol 2: Ovariectomized mice were randomly divided into four groups (n=8), receiving daily treatments with pegylated Pep8 (Pep8-NPEG5) at 10 mg/kg or 2.5 mg/kg, or unpegylated Pep8 at a dose of 10 mg/kg/d, or the vehicle only. Sham-operated mice (n=5) served as healthy controls. Protocol 3: Ovariectomized mice receiving daily treatments with pegylated Pep8 (Pep8-NPEG8) at 10 mg/kg or 2.5 mg/kg, as described before, or unpegylated Pep8 at a lower dose of 2.5 mg/kg/d, or the vehicle only. Sham-operated mice (n=8) served as healthy controls.
During the experimental period, the body weight of the mice was monitored. […] After treatment for five weeks, mice were anesthetized with isoflurane (2%, 1 L/min) and sacrificed by cervical dislocation. Lumbar vertebrae and tibiae were collected for micro-CT analysis and stored at 4° C. in 4% paraformaldehyde until further analysis. Additionally, internal organs (heart, liver, lungs, kidneys, spleen, intestines and thymus) of some mice (n=3 per group) were harvested and stored for toxicity screening.
Analysis of architectural variables of tibiae and vertebrae of mice was performed using the high-resolution X-ray micro-CT system for small animal imaging SkyScan-1072 (SkyScan, Belgium). After scanning, the image data were transferred to a workstation and the proximal tibiae and the fourth lumbar vertebrae (L4) were rendered for 3-D display and calculation of the structural indices (Parfitt et al. 1987) using the SkyScan analysis system (CT-analyser, CT-volume, SkyScan). For trabecular bone parameters in tibiae, transverse CT slices were obtained in the region of interest in the axial direction from the trabecular bone ca. 0.1 mm below the growth plate to the mid-femur. Contours were defined and drawn close to the cortical bone. The trabecular bone was then removed and analyzed separately. Fifty slices (1 mm) at approximately […] distal to the growth plate of the proximal ends of the tibiae were used for analysis. […] The threshold level for the measurements was set at 55 for the analyses. The analysis of the specimens involved the following bone measurements: bone volume fraction (BV/TV, %), trabecular number (TbN), trabecular thickness (TbTh) and trabecular spacing (TbSp).

For assay [2], the target named is T1, hRANK (Homo sapiens, UniProt Q9Y6Q6).
T1 construct: For NMR experiments with soluble RANK receptor-Fc (R&D Systems); purchased R&D Systems
T1 sequence (Q9Y6Q6 30-212 limits assumed): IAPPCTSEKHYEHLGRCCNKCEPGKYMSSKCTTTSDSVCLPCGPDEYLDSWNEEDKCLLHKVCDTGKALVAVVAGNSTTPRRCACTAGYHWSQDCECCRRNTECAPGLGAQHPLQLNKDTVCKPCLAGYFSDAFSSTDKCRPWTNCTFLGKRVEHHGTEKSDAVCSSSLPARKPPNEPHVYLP
The assay is described as follows: Surface plasmon resonance (Biacore) binding to immobilized RANK-Fc. The following applies: SPR, 1:1 Langmuir model. On the procedure:
Biosensor experiments were carried out on a BIAcore 3000 instrument (BIAcore) as published previously (Baud′Huin et al. 2009). Recombinant purified RANKL (2 μg/mL in 5 mM maleate, pH 5.75) or RANK-Fc carrier-free (5 μg/mL in sodium acetate buffer, pH 5.0) were covalently immobilized to the dextran matrix of a CM5 sensor chip (BIAcore) at a flow rate of 5 μL/min. Immobilization levels ranging from 400 to 3000 Response Units (RU) for RANKL or 5000 RU for RANK were obtained. Binding assays were performed at 25° C. in 10 mM Hepes buffer, pH 7.4. The association phase was 180 seconds followed by a dissociation phase in the same buffer. Polypeptides binding studies to RANK or RANKL were determined using single cycle kinetics, starting with 100 μM of the polypeptide of interest followed by 2-fold serial dilutions (ranging from 100 to 0.78 μM). The sensorgrams were fitted to calculate the equilibrium-dissociation constants using the Langmuir 1:1 model with BiaEval 4.1 software (BIAcore). RANK-Fc CF, RANKL and OPG carrier-free were obtained from R&D Systems (Minneapolis, Minn., USA).

Ends that are not written are not given here. (PEG)5 = linear (PEG)5 polyethylene glycol chain at N-terminal amino acid

The values that follow come from US9403873B2, “Peptides targeting receptor activator of nuclear factor-κB (RANK) and their applications” (UNIVERSITE DE NANTES, priority 2011, dated 2016).

As to “Pep8-NPEG5: Pep8 carrying a linear (PEG)5 polyethylene glycol chain at the N-terminal amino acid ({(PEG)5}-NVLKLCSGE)”, the “protection against OVX-induced trabecular bone loss (μCT, tibiae)” value in assay [1] (2.5 mg/kg/d s.c.) is given as “almost as effective”. The “trabecular BV/TV and TbN, tibiae” value in assay [1] (2.5 mg/kg/d, vs vehicle) is reported as “significantly increasing”. Also, in assay [1] (10 mg/kg/d s.c.), the “protection against OVX-induced trabecular bone loss (μCT)” value is “attenuated bone loss in OVX mice to the same extent as treatment with the unpegylated peptide”.
As a reminder, the Kd is the concentration at which binding is half-saturated. For orientation: kon means the rate constant with which the complex forms. For orientation: koff means a measure of how fast the partners let go of each other. On to ELASYIIITQLG [Pep1, ELASYIIITQLG], for which the equilibrium dissociation constant (Kd) in assay [2] (25° C., pH 7.4, read-out: binding affinity (Kd) to hRANK) stood at 20.6 µM. The on-rate (kon) in assay [2] (read-out: association rate constant (kon)) was determined as 13.5 M⁻¹ s⁻¹. Also, the off-rate constant (koff) in assay [2] (read-out: dissociation rate constant (koff)) came out at 0.000278 s⁻¹.
